Measurements: publication PMC3684959 (Chemistry & biology, 2013)

Key:
Arp3 (Arp2/3 complex) [1] = molecular target: T1, Arp3 (Arp2/3 complex) (Bos taurus, UniProt P61157); assay: fluorescence titration of BtArp2/[…] complex with ε-ATP; assay type: binding
Arp3 (Arp2/3 complex) [2] = molecular target: T1, Arp3 (Arp2/3 complex); assay: X-ray co-crystal structure, […] Å, with CK-869 also bound; assay type: binding

| Compound | Kd (Arp3 (Arp2/3 complex) [1]) | X-ray co-crystal structure, 2.5 Å, with CK-869 also bound (Arp3 (Arp2/3 complex) [2]) |
| --- | --- | --- |
| O=P(O)(O)OP(=O)(O)OP(=O)(O)OC[C@H]1O[C@@H](n2cnc3c2ncn2ccnc32)[C@H](O)[C@@H]1O [ε-ATP] | 3 ± 0.4 µM | – |
| Nc1ncnc2c1ncn2[C@@H]1O[C@H](COP(=O)(O)OP(=O)(O)OP(=O)(O)O)[C@@H](O)[C@H]1O [ATP] | – | show strong density for both ATP and CK-869 bound to Arp3 subunit |
